PMC10979003, “Development and crystal structures of a potent second-generation dual degrader of BCL-2 and BCL-xL” (Nature Communications, 2024)

What was measured:
[1] = tested on: Jurkat cells; experiment: TMT-based proteomics in Jurkat cells; assay type: cell-based, human; conditions: 100 nM, 8 h
Experimental: To further assess the cellular selectivity of 753b and WH244 for BCL-xL/BCL-2 proteins, multiplexed tandem mass tag (TMT) labeling mass spectrometry proteomic experiments were performed to monitor protein levels in an unbiased fashion. Jurkat cells were treated in triplicate with DMSO, 100 nM 753b or 100 nM WH244 for 8 h (Supplementary Fig. 10b). […] To assess BCL-xL and BCL-2 degradation, we utilized western blotting with the same samples, and successfully verified the degradation of both BCL-xL and BCL-2 proteins induced by 753b and WH244, respectively (Supplementary Fig. 10c). We speculate that these apparently contradictory results may be attributable to some of the limitations of TMT technology, where low TMT-labeling efficiency for some proteins and peptides, can lead to inability to detect these proteins by TMT-based proteomics analysis. This limitation has been observed in several other reported PROTAC studies[52],[53]. […]
Proteins were identified and MS3 reporter ions quantified using MaxQuant (version 2.2.0.0; Max Planck Institute) against the Homo sapiens UniprotKB database (March 2023) with a parent ion tolerance of 3 ppm, a fragment ion tolerance of 0.5 Da, and a reporter ion tolerance of 0.003 Da. […] Protein TMT MS3 reporter ion intensity values were assessed for quality using ProteiNorm for a systematic evaluation of normalization methods. […]

[2] = target: T1, HiBiT-BCL-xL (Homo sapiens, UniProt Q07817); experiment: HiBiT degradation assay, HiBiT knock-in BCL-xL HeLa cells; assay type: cell-based
T1 construct: endogenous in cells; host or cells: HeLa (ATCC CCL-2), CRISPR-Cas9 HiBiT knock-in clone
Experimental: The Alt-R CRISPR RNA (crRNA):Alt-R trans-activating crRNA (tracrRNA) duplexes for targeting BCL-xL or BCL-2 were prepared by mixing 0.5 nmol crRNA and 0.5 nmol tracrRNA in 25 μL of Nuclease-Free Duplex Buffer (Integrated DNA Technologies, IDT) by incubation at 95 °C for 5 min and cooling to RT. Single-stranded ultramer DNA oligonucleotides (ssODN) (IDT) were used as the homology directed repair (HDR) donor templates. The sequences of gRNAs and ssODN templates are listed in Supplementary Table 2. Ribonucleoprotein (RNP) complexes with recombinant Streptococcus pyogenes Cas9 protein (IDT) and crRNA:tracrRNA duplex were assembled by incubating 100 pmol of Cas9 and 120 pmol of gRNA for 10–20 min at room temperature. HeLa (2 × 10^5) cells were resuspended in 10 μL of Neon^TM transfection system buffer R from the Neon^TM transfection system 10 mL kit (Thermo Fisher), and the RNP complex along with 100 pmol ssODN template were electroporated into HeLa cells with the Neon^TM transfection system (Thermo Fisher). After electroporation, HeLa cells were transferred to a 12-well plate for culturing. Edited pooled cells were analyzed for HiBiT insertion by assaying for luminescence using Nano-Glo® HiBiT lytic detection system (Cat #N3040, Promega) in a Biotek’s Synergy Neo2 multimode plate reader (Biotek) 48–72 h after electroporation and single clones were selected by serial dilution.
HeLa HiBiT-BCL-xL and HeLa HiBiT-BCL-2 cells (2 × 10^4/well in 80 μL DMEM) were seeded into white 96-well tissue culture plates and incubated overnight at 37 °C, 5% CO2. For dose curve testing, the following day, serial diluted compounds were added into the medium and then plates were incubated at 37 °C, 5% CO2, for 6 h. For time course testing, in the following day, compounds with indicated concentrations were added into the medium at different time points. After treatment, the luminescence signals were measured using Nano-Glo® HiBiT lytic detection system (Cat #N3040, Promega) in a Biotek’s Synergy Neo2 multimode plate reader (Biotek).

T1 sequence (Q07817 whole entry): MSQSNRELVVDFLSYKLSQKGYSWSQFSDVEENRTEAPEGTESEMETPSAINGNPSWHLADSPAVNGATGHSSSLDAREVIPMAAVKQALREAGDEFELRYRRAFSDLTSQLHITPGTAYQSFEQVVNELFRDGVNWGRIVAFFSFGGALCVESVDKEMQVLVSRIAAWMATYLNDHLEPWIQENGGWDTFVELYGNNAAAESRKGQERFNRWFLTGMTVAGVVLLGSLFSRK

Row | Compound | Proteins significantly down-regulated among approximately 6000 identified [1] | Time to degrade 50% of BCL-xL ([2]; 10 nM compound) | Time to degrade 50% of BCL-xL ([2]; 100 nM compound) | Potency for inducing degradation of BCL-xL (comparison) ([2]; 6 h treatment)
1 | Cc1ncsc1-c1ccc(C(C)NC(=O)C2CC(O)CN2C(=O)C(NC(=O)CCCCCCC(=O)N2CCN(CC3(C)CCC(c4ccc(Cl)cc4)=C(CN4CCN(c5ccc(C(=O)NS(=O)(=O)c6ccc(NC(CCN7CCOCC7)CSc7ccccc7)c(S(=O)(=O)C(F)(F)F)c6)cc5)CC4)C3)CC2)C(C)(C)C)cc1 (stereo not shown) [753b] | none of which exhibited significant down-regulation | > 480 min | ~ 84 min | –
2 | Cc1ncsc1-c1ccc([C@H](C)NC(=O)[C@@H]2C[C@@H](O)CN2C(=O)[C@@H](NC(=O)CN2CCN(CC(=O)N3CCN(C[C@]4(C)CCC(c5ccc(Cl)cc5)=C(CN5CCN(c6ccc(C(=O)NS(=O)(=O)c7ccc(N[C@H](CCN8C[C@@H]9C[C@H]8CO9)CSc8ccccc8)c(S(=O)(=O)C(F)(F)F)c7)cc6)CC5)C4)CC3)CC2)C(C)(C)C)cc1 [WH244] | none of which exhibited significant down-regulation | ~ 219 min | ~ 45 min | more potent than 753b
